Measured values taken from ChEMBL document CHEMBL1137473, “Pyrazole-based cathepsin S inhibitors with improved cellular potency” (Bioorg Med Chem Lett, 2007).
Activity calls are given as the source filed them. No cut-off for these calls is given here.

Assays:
Cathepsin S [1] = biological target: T1, Cathepsin S (Homo sapiens, UniProt P25774); assay: Inhibition of human cathepsin S
Target sequence in this assay (P25774 whole entry): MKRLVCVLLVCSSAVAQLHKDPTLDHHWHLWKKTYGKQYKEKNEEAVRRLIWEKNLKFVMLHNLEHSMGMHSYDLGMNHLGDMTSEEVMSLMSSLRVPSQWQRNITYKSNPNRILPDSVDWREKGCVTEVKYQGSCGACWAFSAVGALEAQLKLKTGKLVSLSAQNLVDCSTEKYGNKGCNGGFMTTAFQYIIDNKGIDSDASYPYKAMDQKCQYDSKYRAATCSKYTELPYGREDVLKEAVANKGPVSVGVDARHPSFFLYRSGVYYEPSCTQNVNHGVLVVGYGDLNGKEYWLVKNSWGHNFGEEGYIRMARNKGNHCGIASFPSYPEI

[2] = biological target: Procathepsin L (Homo sapiens) (UniProt P07711); assay: Inhibition of cathepsin L upto 5 uM
Chain of Procathepsin L (Homo sapiens) (P07711 114-333 limits assumed): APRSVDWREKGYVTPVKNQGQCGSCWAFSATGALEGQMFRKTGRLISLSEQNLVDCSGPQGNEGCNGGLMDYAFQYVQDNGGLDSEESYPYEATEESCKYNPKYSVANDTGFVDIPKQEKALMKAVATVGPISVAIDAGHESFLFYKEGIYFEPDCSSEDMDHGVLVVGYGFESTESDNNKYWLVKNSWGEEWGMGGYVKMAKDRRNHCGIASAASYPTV

[3] = biological target: T2, Cathepsin E (Homo sapiens) (UniProt P14091); assay: Inhibition of cathepsin E upto 5 uM
T2 sequence (whole entry): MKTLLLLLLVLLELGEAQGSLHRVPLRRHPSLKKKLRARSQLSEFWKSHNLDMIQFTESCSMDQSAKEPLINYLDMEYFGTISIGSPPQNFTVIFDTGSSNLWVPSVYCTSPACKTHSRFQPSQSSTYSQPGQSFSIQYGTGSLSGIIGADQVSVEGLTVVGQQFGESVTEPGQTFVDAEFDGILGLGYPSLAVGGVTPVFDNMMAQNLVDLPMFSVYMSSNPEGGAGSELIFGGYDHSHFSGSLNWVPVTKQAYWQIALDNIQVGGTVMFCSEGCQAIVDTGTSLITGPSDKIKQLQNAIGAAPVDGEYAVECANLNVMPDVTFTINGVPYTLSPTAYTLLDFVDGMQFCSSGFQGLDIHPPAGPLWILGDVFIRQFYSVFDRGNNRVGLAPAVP

[4] = biological target: Cathepsin B (Homo sapiens) (UniProt P07858); assay: Inhibition of cathepsin B upto 5 uM
Legumain (Homo sapiens) = biological target: T3, Legumain (Homo sapiens) (UniProt Q99538); assay: Inhibition of legumain upto 5 uM
T3 sequence (whole entry): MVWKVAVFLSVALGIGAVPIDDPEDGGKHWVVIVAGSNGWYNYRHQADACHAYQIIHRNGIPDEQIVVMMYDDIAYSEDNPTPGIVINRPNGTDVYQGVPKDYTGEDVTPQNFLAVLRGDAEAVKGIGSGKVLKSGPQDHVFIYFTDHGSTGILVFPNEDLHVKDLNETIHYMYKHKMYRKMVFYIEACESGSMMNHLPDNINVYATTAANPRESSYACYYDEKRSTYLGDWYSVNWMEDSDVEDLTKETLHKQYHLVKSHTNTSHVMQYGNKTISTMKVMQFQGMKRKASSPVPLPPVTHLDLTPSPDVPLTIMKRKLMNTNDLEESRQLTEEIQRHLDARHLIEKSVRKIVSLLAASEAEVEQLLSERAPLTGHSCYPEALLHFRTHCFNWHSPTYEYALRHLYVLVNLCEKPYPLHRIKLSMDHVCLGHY

Cathepsin S [5] = biological target: T1, Cathepsin S; assay: Inhibition of cathepsin S in human JY cells upto 10 uM by invariant chain degradation assay; type: cell-based
Target sequence in this assay (P25774 115-331 limits assumed): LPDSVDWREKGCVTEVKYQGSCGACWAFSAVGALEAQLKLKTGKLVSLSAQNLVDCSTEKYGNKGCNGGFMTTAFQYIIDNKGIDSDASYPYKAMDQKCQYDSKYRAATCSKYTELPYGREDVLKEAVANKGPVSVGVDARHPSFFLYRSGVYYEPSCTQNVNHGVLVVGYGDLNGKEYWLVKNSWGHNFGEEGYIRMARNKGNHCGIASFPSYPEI

Cathepsin S [6] = biological target: T1, Cathepsin S; assay: Inhibition of cathepsin S in human JY cells by invariant chain degradation assay; type: cell-based
Target sequence in this assay (P25774 whole entry): as the sequence (P25774 whole entry) above

| SMILES | IC50 (Cathepsin S [1]) [nM] | IC50 (Cathepsin S [6]) [nM] | other results |
| --- | --- | --- | --- |
| CN(C)C(=O)c1sc2cc(F)ccc2c1C1CCN(CCCn2nc(-c3ccc(C(F)(F)F)cc3)c3c2CCN(S(C)(=O)=O)C3)CC1 | 370 | – | – |
| CS(=O)(=O)N1CCc2c(c(-c3ccc(C(F)(F)F)cc3)nn2CC(O)CN2CCC(c3c[nH]c4ccncc34)CC2)C1 (stereo unspecified) | – | – | Activity [2]: inactive; Activity [3]: inactive; Activity [4]: inactive; Activity (Legumain (Homo sapiens)): inactive |
| CC(=O)N1CCc2c(c(-c3ccc(C(F)(F)F)cc3)nn2CC(O)CN2CCC(c3c[nH]c4ccc(Cl)cc34)CC2)C1 (stereo unspecified) | 95 | – | Activity (Cathepsin S [5]): inactive |
| COC(=O)c1sc2cc(F)ccc2c1C1CCN(CC(O)Cn2nc(-c3ccc(C(F)(F)F)cc3)c3c2CCN(C(C)=O)C3)CC1 (stereo unspecified) | 140 | – | – |
| CC(=O)N1CCc2c(c(-c3ccc(C(F)(F)F)cc3)nn2CC(O)CN2CCC(c3coc4cc(F)ccc34)CC2)C1 (stereo unspecified) | 360 | – | – |
| CS(=O)(=O)N1CCc2c(c(-c3ccc(C(F)(F)F)cc3)nn2CC(O)CN2CCC(N3C(=O)COc4ccccc43)CC2)C1 (stereo unspecified) | 10 | 800 | – |
| CS(=O)(=O)N1CCc2c(c(-c3ccc(C(F)(F)F)cc3)nn2CC(O)CN2CCC(c3c[nH]c4cccnc34)CC2)C1 (stereo unspecified) | – | – | Activity [2]: inactive; Activity [3]: inactive; Activity [4]: inactive; Activity (Legumain (Homo sapiens)): inactive |
| CC(=O)N1CCc2c(c(-c3ccc(C(F)(F)F)cc3)nn2CC(O)CN2CCC(c3csc4cc(F)ccc34)CC2)C1 (stereo unspecified) | 290 | – | – |
| CS(=O)(=O)N1CCc2c(c(-c3ccc(Br)cc3)nn2CC(O)CN2CCC(c3c[nH]c4ncccc34)CC2)C1 (stereo unspecified) | 195 | – | – |
| CS(=O)(=O)N1CCc2c(c(-c3ccc(C(F)(F)F)cc3)nn2CCCN2CCC(c3c(C(=O)O)sc4cc(F)ccc34)CC2)C1 | 100 | > 10000 | – |
| CS(=O)(=O)N1CCc2c(c(-c3ccc(C(F)(F)F)cc3)nn2CC(O)CN2CCC(c3c[nH]c4cnccc34)CC2)C1 (stereo unspecified) | – | – | Activity [2]: inactive; Activity [3]: inactive; Activity [4]: inactive; Activity (Legumain (Homo sapiens)): inactive |
| COC(=O)c1sc2cc(F)ccc2c1C1CCN(CCCn2nc(-c3ccc(C(F)(F)F)cc3)c3c2CCN(S(C)(=O)=O)C3)CC1 | 130 | 1800 | – |
| CS(=O)(=O)N1CCc2c(c(-c3ccc(C(F)(F)F)cc3)nn2CC(O)CN2CCC(c3csc4cc(F)ccc34)CC2)C1 (stereo unspecified) | 180 | – | – |
| CS(=O)(=O)N1CCc2c(c(-c3ccc(Br)cc3)nn2CC(O)CN2CCC(c3c[nH]c4ccncc34)CC2)C1 (stereo unspecified) | 77 | 150 | – |
| N#Cc1ccccc1N1CCN(CC(Cn2nc(-c3ccc(I)cc3)c3c2CCN(C(N)=O)C3)OC(N)=O)CC1 (stereo unspecified) | 10 | 800 | – |
| Cn1c(=O)n(C2CCN(CCCn3nc(-c4ccc(Cl)c(Cl)c4)c4c3CCN(S(C)(=O)=O)C4)CC2)c2ccccc21 | 10 | 800 | – |
| COC(=O)c1oc2cc(F)ccc2c1C1CCN(CC(O)Cn2nc(-c3ccc(C(F)(F)F)cc3)c3c2CCN(C(C)=O)C3)CC1 (stereo unspecified) | 220 | – | – |
| CS(=O)(=O)N1CCc2c(c(-c3ccc(C(F)(F)F)cc3)nn2CC(O)CN2CCC(c3c[nH]c4ncccc34)CC2)C1 (stereo unspecified) | – | – | Activity [2]: inactive; Activity [3]: inactive; Activity (Legumain (Homo sapiens)): inactive |
